From article PMC8661056, “Synthesis and Evaluation of [^11C]7-Halogen-2-Phenyl Isoindolone Derivatives: Potential PET Radioligands for in vivo Imaging of 5-HT2C Receptors” (Frontiers in Neuroscience, 2021)

Legend:
5-HT2A [1] = target: T1, 5-HT2A (Homo sapiens, UniProt P28223); assay: primary binding, 5-HT2A
Excerpt: (§1) We selected 6 and 9 for carbon-11 radiolabelling and PET imaging studies.

5-HT1A = target: T2, 5-HT1A (Homo sapiens, UniProt P08908); assay: competition binding assay (NIMH PDSP), 5-HT1A; settings: read-out: Binding affinity Ki, 5-HT1A
T2 sequence (P08908 1-422): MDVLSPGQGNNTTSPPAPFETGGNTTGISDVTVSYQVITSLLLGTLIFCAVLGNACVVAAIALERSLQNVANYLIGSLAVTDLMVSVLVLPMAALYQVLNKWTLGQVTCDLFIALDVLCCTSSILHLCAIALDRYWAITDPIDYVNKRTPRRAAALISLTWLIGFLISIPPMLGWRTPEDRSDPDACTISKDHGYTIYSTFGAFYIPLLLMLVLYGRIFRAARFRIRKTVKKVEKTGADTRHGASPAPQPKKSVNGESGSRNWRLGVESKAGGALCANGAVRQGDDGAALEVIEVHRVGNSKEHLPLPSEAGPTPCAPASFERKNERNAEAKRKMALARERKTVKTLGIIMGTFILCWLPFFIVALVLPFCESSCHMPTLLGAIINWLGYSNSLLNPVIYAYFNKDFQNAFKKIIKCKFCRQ

5-HT2B = 5-HT2B (Homo sapiens, UniProt P41595); assay: competition binding assay (NIMH PDSP), 5-HT2B; settings: mean of three experiments ± SD, read-out: Binding affinity Ki, 5-HT2B
Chain of 5-HT2B (P41595 whole entry, species assumed): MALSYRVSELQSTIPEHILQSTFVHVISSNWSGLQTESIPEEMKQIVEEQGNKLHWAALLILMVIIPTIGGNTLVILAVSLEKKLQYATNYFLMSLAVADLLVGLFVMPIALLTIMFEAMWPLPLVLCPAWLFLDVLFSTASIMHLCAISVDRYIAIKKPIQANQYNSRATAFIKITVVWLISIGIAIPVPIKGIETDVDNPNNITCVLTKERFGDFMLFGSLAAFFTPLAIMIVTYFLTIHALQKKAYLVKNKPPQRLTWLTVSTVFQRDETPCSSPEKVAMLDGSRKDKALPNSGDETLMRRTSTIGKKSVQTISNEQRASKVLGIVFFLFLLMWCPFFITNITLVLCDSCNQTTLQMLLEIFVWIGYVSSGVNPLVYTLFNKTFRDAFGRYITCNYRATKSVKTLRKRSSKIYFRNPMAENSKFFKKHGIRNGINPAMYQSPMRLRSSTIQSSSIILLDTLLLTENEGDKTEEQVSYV

5-HT2C = target: T3, 5-HT2C (Homo sapiens, UniProt P28335); assay: 5-HT2C competition binding assay with [^3H]mesulergine (NIMH PDSP); settings: for Ki: competition with [^3H]mesulergine, mean of three experiments ± SD, read-out: Binding affinity Ki, 5-HT2C
T3 sequence (P28335 33-458): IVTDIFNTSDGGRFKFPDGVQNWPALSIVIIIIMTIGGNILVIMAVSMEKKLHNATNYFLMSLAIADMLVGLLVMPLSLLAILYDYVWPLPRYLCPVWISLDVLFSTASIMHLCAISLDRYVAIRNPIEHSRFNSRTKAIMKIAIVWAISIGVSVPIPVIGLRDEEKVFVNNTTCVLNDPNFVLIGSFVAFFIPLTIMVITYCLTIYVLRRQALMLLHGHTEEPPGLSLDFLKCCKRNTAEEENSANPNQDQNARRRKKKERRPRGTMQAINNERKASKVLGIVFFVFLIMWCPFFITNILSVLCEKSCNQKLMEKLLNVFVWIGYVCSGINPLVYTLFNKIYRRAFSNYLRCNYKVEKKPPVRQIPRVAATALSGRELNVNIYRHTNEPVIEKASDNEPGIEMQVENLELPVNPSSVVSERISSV
Excerpt: as §1

5-HT2A [2] = target: T1, 5-HT2A; assay: competition binding assay (NIMH PDSP), 5-HT2A; settings: read-out: Binding affinity Ki, 5-HT2A
D1-D5 = assay: competition binding assay (NIMH PDSP), dopamine D1-D5; settings: read-out: Binding affinity Ki, D1-D5
5-HT5–7 = assay: competition binding assay (NIMH PDSP), 5-HT5–7; settings: read-out: Binding affinity Ki, 5-HT5–7
[3] = set-up: method as in Hamprecht et al., 2007; settings: ref Hamprecht et al., 2007; cited from earlier work
5-HT2CR [4] = test system: 5-HT2CR; set-up: method as in Zeng et al., 2018; settings: rhesus monkeys; ref Zeng et al., 2018; cited from earlier work
5-HT2CR [5] = assay: microPET brain imaging in rhesus monkeys; format: in vivo; settings: rhesus monkey; for effect of pretreatment with SB-242084 on uptake in choroid plexus and hippocampus: target 0.1 mg/kg SB-242084 30 min prior to injection (soluble dose likely much less)
Excerpt: [^11C]6 and [^11C]9 were further evaluated in rhesus monkeys using a Siemens MicroPET Focus 220 scanner (Figure 3). […] Ratios of uptake in choroid plexus, hippocampus, amygdala, frontal cortex to that in cerebellum peaked at 2.7, 1.6, 1.3, and 1.1, respectively.
FIGURE 3 PET-MRI analysis of [^11C]6 and [^11C]9 in rhesus monkey. (A) MicroPET images of [^11C]6 (left) and corresponding fused PET/MRI images summed over all time at baseline. (B) MicroPET images [^11C]6 (left) and corresponding fused PET/MRI images summed over all time after pretreatment with 0.1 mg/kg of SB-242084. (C) Time-activity curves of [^11C]6 for brain regions of interest at baseline study. (D) Time-activity curves of [^11C]6 for brain regions after pretreatment with SB-242084. (E) Time-activity curves of [^11C]9 for brain regions of interest at baseline study. (F) Time-activity curves of [^11C]9 for brain regions after pretreatment with SB-242084.
To test specific binding of [^11C]6 and [^11C]9 to the choroid plexus and hippocampus, an in vivo microPET blocking study was performed with 0.1 mg/kg SB-242084 30 min prior to injection, respectively. Unfortunately, due to the unexpected low solubility of SB-242084 in the injection form (10% ethanol in saline), the administered SB-242084 in soluble form to the monkeys was likely much less than the target 0.1 mg/kg. As a result, the uptake of [^11C]6 and [^11C]9 in the choroid plexus and hippocampus was still present.

5-HT2CR [6] = target: T4, 5-HT2CR (Rattus norvegicus, UniProt P08909); assay: microPET/CT brain imaging in rats; format: in vivo, Sprague–Dawley rats; settings: for effect of pretreatment with SB-242084 on uptake: 0.1 mg/kg SB-242084 prior to injection; for ratio of uptake in choroid plexus to cerebellum, peak / ratio of uptake in hippocampus to cerebellum, peak: i.v., baseline, from time-activity curves
T4 construct: from tissue; host or cells: brain of living Sprague–Dawley rats (choroid plexus, hippocampus)
T4 sequence (P08909 33-460): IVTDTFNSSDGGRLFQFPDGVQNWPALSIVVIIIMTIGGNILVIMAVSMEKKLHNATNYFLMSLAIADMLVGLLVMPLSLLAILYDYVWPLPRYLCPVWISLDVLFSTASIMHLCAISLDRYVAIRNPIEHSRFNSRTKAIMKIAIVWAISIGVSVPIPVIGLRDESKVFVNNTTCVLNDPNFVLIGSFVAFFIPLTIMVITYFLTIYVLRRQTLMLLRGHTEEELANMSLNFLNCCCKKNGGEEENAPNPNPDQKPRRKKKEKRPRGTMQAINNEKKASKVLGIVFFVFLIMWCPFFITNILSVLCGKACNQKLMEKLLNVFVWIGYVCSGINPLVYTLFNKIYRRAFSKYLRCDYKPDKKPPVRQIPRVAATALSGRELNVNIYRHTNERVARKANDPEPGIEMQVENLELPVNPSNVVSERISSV
Protocol: [^11C]6 and [^11C]9 were intravenously administered to Sprague–Dawley rats and brain images were acquired with a Siemens Inveon microPET/CT imaging system, respectively (Figure 2).
FIGURE 2 PET analysis of [^11C]6 and [^11C]9 in Sprague–Dawley rats. (A) Summed images of [^11C]6 PET/CT data from 10 to 120 min p.i. at baseline. Orange arrows depict choroid plexus; Blue arrows depict hippocampus. (B) Summed images of [^11C]6 PET/CT data from 10 to 120 min p.i. after pretreatment with 0.1 mg/kg of SB-242084. (C) Mean (n = 3) time-activity curves for brain regions of interest of [^11C]6 at baseline with standard error. (D) Mean (n = 3) time-activity curves for brain regions of interest of [^11C]6 after pretreatment with 0.1 mg/kg of SB-242084 with standard error. (E) Mean (n = 3) time-activity curves for brain regions of interest of [^11C]9 at baseline with standard error. (F) Mean (n = 3) time-activity curves for brain regions of interest of [^11C]9 after pretreatment with 0.1 mg/kg of SB-242084 with standard error.

[7] = lipophilicity, octanol/phosphate buffer partition; format: physicochemical; settings: pH 7.4, read-out: log P7.4
Protocol: [^11C]6 and [^11C]9 were prepared via O-methylation of 10 and 11 with [^11C]CH3I in the presence of 0.1 M Bu4NOH in DMF followed by HPLC purification, respectively. [^11C]6 and [^11C]9 were obtained in an average radiochemical yield of 37–44 ± 4% (n = 10, decay corrected) with ≥97% radiochemical and chemical purity. The total synthesis time was 50 ± 5 min end of bombardment and the specific activity were in the range of 0.5–1.2 Ci/μmol at time of injection. The lipophilicities of 6 and 9 (octanol/phosphate buffer partition) were measured. The log P7.4 values of [^11C]6 and [^11C]9 are 2.81 and 2.89, respectively, which are in the optimal range (1.0–3.0) for compounds expected to enter the brain readily.

5-HT2CR [8] = test system: 5-HT2CR; set-up: method as in Neelamegam et al., 2014; settings: PET imaging; ref Neelamegam et al., 2014; cited from earlier work

T1 sequence (P28223 whole entry, species assumed): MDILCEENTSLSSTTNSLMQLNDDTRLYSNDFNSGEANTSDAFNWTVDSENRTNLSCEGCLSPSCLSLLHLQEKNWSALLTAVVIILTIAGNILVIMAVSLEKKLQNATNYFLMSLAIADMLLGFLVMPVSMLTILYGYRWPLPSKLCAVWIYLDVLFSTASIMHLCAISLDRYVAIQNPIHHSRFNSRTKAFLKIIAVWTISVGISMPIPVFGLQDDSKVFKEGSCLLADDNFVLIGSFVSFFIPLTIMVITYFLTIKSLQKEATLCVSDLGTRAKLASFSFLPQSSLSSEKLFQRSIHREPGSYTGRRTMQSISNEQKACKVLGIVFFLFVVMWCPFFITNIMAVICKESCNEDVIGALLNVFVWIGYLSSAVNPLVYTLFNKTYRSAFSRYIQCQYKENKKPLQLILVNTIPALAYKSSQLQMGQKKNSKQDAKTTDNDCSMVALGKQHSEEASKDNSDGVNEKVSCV

## COc1ccc(N2Cc3cccc(Cl)c3C2=O)cc1OCCN1CCC(C)CC1 [Compound 6, 7-chloro-2-[4-methoxy-3-[2-(4-methylpiperidin-1-yl)ethoxy]phenyl]isoindolin-1-one]
5-HT2A [1]
  primary bindings at 5-HT2A: < 50%
5-HT1A
  Ki: > 1000 nM
5-HT2B
  Ki: 194 ± 74 nM
5-HT2C
  Ki: 2.2 ± 0.3 nM
5-HT2C; relative to compound 9
  5-HT2C binding less than that for 9: 2–3 times
5-HT2A [2]
  Ki: > 1000 nM
D1-D5
  Ki: > 1000 nM
5-HT5–7
  Ki: > 1000 nM
[3]
  brain permeability as measured by brain to blood plasma ratio: great

## COc1ccc(N2Cc3cccc(F)c3C2=O)cc1OCCN1CCC(C)CC1 [Compound 8]
5-HT1A
  Ki: > 1000 nM
5-HT2B
  Ki: 434 ± 204 nM
5-HT2C
  Ki: 28 ± 14 nM
5-HT2A [2]
  Ki: > 1000 nM
D1-D5
  Ki: > 1000 nM
5-HT5–7
  Ki: > 1000 nM

## COc1ccc(N2Cc3cccc(I)c3C2=O)cc1OCCN1CCC(C)CC1 [Compound 9, 7-iodo-2-[4-methoxy-3-[2-(4-methylpiperidin-1-yl)ethoxy]phenyl]isoindolin-1-one]
5-HT2A [1]
  primary bindings at 5-HT2A: < 50%
5-HT1A
  Ki: > 1000 nM
5-HT2B
  Ki: 126 ± 28 nM
5-HT2C
  Ki: 1.1 ± 0.3 nM
5-HT2A [2]
  Ki: > 1000 nM
D1-D5
  Ki: > 1000 nM
5-HT5–7
  Ki: > 1000 nM

## Cc1ccc2c(C(=O)Nc3ccc(Oc4cccnc4C)nc3)c[nH]c2c1 [[^11C]5, 6-methyl-N-[6-[(2-methyl-3-pyridinyl)oxy]-3-pyridinyl]1H-indole-3-carboxamide]
5-HT2CR [4]
  level of specific binding in the choroid plexus: high
  overall brain uptake and retention: low

## CC1CCN(CCOc2cc(N3Cc4cccc(Cl)c4C3=O)ccc2O[11CH3])CC1 [[^11C]6, [^11C]7-Chloro-2-[4-methoxy-3-[2-(4-methylpiperidin-1-yl)ethoxy]phenyl]isoindolin-1-one]
5-HT2CR [5]
  blood-brain barrier penetration: excellent
  effect of pretreatment with SB-242084 on uptake in choroid plexus and hippocampus: a reduction in the uptake and faster washout
5-HT2CR [5]; baseline
  SUV in choroid plexus (peak uptake): 5.6
  SUV in hippocampus: 4.6
  ratio of uptake in amygdala to cerebellum, peak: 1.3
  ratio of uptake in choroid plexus to cerebellum, peak: 2.7
  ratio of uptake in frontal cortex to cerebellum, peak: 1.1
  ratio of uptake in hippocampus to cerebellum, peak: 1.6
5-HT2CR [5]; baseline, after injection
  time of peak radioactivity uptake in choroid plexus: 20 to 30 min
5-HT2CR [5]; baseline, postinjection
  time of peak uptakes in hippocampus, amygdala, frontal cortex and cerebellum: 9.5 to 18.5 min
5-HT2CR [6]
  effect of pretreatment with SB-242084 on uptake: reduction of radioactivity uptake in choroid plexus and hippocampus to the same level as of the cerebellum
  ratio of uptake in choroid plexus to cerebellum, peak: 1.8
  ratio of uptake in hippocampus to cerebellum, peak: 1.2
[7]
  logD: 2.81

## CC1CCN(CCOc2cc(N3Cc4cccc(I)c4C3=O)ccc2O[11CH3])CC1 [[^11C]9, [^11C]7-iodo-2-[4-methoxy-3-[2-(4-methylpiperidin-1-yl)ethoxy]phenyl]isoindolin-1-one]
5-HT2CR [5]
  blood-brain barrier penetration: excellent
  effect of pretreatment with SB-242084 on uptake in choroid plexus and hippocampus: a reduction in the uptake and faster washout
5-HT2CR [5]; baseline
  SUV in choroid plexus (peak uptake): 2.01
  SUV in hippocampus: 1.46
  ratio of uptake in choroid plexus to cerebellum, peak: 3.7
  ratio of uptake in hippocampus to cerebellum, peak: 2.7
5-HT2CR [5]; baseline, after injection
  time of peak uptake in choroid plexus and hippocampus: 25 to 55 min
5-HT2CR [6]
  effect of pretreatment with SB-242084 on uptake: reduction of radioactivity uptake in choroid plexus and hippocampus to the same level as of the cerebellum
  ratio of uptake in choroid plexus to cerebellum, peak: 1.9
  ratio of uptake in hippocampus to cerebellum, peak: 1.3
[7]
  logD: 2.89

## c1cc2c3c(c1)[C@H]1CCC[C@H]1CN3CCN[11CH2]2 [[^11C]Vabicaserin]
5-HT2CR [8]
  non-specific binding in baboon brains: high

## c1cc2c3c(c1)[C@H]1CCC[C@H]1N3CCN[11CH2]2 [[^11C]WAY-163909]
5-HT2CR [8]
  non-specific binding in baboon brains: high
